The results in this text go back to patent US20040120954A1, “Regulation of mt1-mmp activity” (priority 2000, published 2004).

The subject of experiment [1] is HT1080 cells. Briefly: Matrigel invasion assay (modified Boiden-chamber method). Format: cell-based, human. Particulars: HT1080 cells transfected with the expression plasmid (with GFP), 14 hrs (FIG. 15). On the procedure: Matrigel Invasion Chambers were prepared according to the manufacturer's instructions (Becton Dickinson Labware, MA, USA) by coating, with […] of Matrigel, the 8 μm-pore sized membrane of the culture inserts for 24-well plates (Falcon). A 0.5 ml aliquot of transfected HT1080 cell suspension at 0.1×10^5/ml was seeded on the upper chamber and incubated at 37° C. in a humidified chamber. Hepatocyte growth factor (Toyobo; 10 ng/ml) was added to the lower chamber as a chemo-attractant. After 14 hrs of incubation, cells remaining on the upper surface of the membrane were removed, and cells on the lower surface were fixed with 3% para-formaldehyde in PBS. Green fluorescent protein (GFP)-positive cells that had invaded to the lower, surface were counted using fluorescence microscopy (×40).
Cells were transiently transfected with a vector for MT1PEX-F, together with an expression vector for green fluorescent protein (GFP), and GFP-positive invading cells were counted under fluorescence microscopy. HT1080 cells were co-transfected with expression vectors for MT1PEX-F and GFP, or with an expression vector for GFP alone. The cells were assayed for Matrigel invasion as described below. The modified Boiden-chamber method was carried out. […]
TIMP-2 at 0.5 μg/ml was added to the upper and lower chambers. GFP-positive cells on the surface of the lower chamber were counted using fluorescence microscopy. […]

For experiment [2], the system named is HT1080 cells. Briefly: Activation of endogenous proMMP-2 in HT1080 cells (zymography, Western blotting). Format: cell-based, human. As for the experimental part: FIG. 31: In regard to the efficacy of MT1PEX-F on the matrigel invasive action of HT1080 cells, HT1080 cells were transfected with the stable expression plasmids for MT1PEX-F and the empty vector (Mock). Hygromycin resistant cells were collected and re-seeded. The culture medium was changed to a serum-free medium in the presence or absence of BB94, and the cells were further cultured. The culture media and the cell lysates were analyzed by gelatin zymography and Western blotting using an anti-MT1PEX antibody, respectively.
HT1080 cells are known to express MT1-MMP and MMP-2 endogenously. Thus, the efficacy of MT1PEX-F expression on the activation of endogenous proMMF-2 in HT1080 cells was next examined. The cells were transfected with a plasmid for MT1PEX-F or an empty vector bearing the hygromycin-resistant gene. The culture medium from the hygromycin-resistant cells was analyzed for produced MMP-2 by zymography. […] Co-expression of endogenous MT1-MMP and MT1PEX-F clearly indicated the co-localization of both molecules at the edge of the cells (FIG. 32).

Regarding “MT1PEX-F: Catalytic domain-deleted FLAG-tagged MT1-MMP (Δ Tyr112-Pro312), expressed by transfection”, in the experiment on HT1080 cells [1], the “suppression of Matrigel invasion” value stood at 70%. Further, the “effect on expression and processing of endogenous MT1-MMP” value in the experiment with HT1080 cells [2] (HT1080 cell lysates, Western blotting (FIG. 31)) was “did not affect the expression and processing of endogenous MT1-MMP”. The “activation of endogenous proMMP-2” value in the experiment with HT1080 cells [2] (hygromycin-resistant HT1080 cells, serum-free medium (FIG. 31)) is “did not effectively activate proMMP-2”.
